The structures appear in SMILES notation.

The nature of this data set: method code SF, from DOI: 10.1021/jm00128a037, PMID: 2754714.
The molecule `CC(C)COC(=O)Cc1cc(CN2CCCC2)c(O)c(CN2CCCC2)c1` came in with a logP of 0.1.

Molecule `CCCOC(=O)Cc1cc(CN2CCCC2)c(O)c(CN2CCCC2)c1` had a logP of -0.37. The value for `CC(C)COC(=O)CCc1cc(CN2CCCC2)c(O)c(CN2CCCC2)c1` was 0.19; that for `CCOC(=O)Cc1cc(CN2CCCC2)c(O)c(CN2CCCC2)c1` was -0.74; that for `CC(C)COC(=O)CCCc1cc(CN2CCCC2)c(O)c(CN2CCCC2)c1` was 0.86. The value for `CCCCOC(=O)Cc1cc(CN2CCCC2)c(O)c(CN2CCCC2)c1` was 0.18; that for `CC(C)OC(=O)CCc1cc(CN2CCCC2)c(O)c(CN2CCCC2)c1` was -0.21. `CCCCOC(=O)CCc1cc(CN2CCCC2)c(O)c(CN2CCCC2)c1` came in with a logP of 0.3.

Molecule `CCCOC(=O)CCc1cc(CN2CCCC2)c(O)c(CN2CCCC2)c1` gave a logP of -0.11.

In turn, `CC(C)OC(=O)Cc1cc(CN2CCCC2)c(O)c(CN2CCCC2)c1` returned a log partition coefficient (logP) of -0.41. Take `CCCCOC(=O)CCCc1cc(CN2CCCC2)c(O)c(CN2CCCC2)c1`: the logP came out at 1.11.
